This note sets out measurements from US9833497B2, “Human originated EGF domain proteins and use of the same” (CHENGDU SOURCEBIO LIMITED-LIABILITY COMPANY, priority 2013, dated 2017).

Common to all, as to type: cell-based
For assay [1], the system named is Klebsiella pneumonia. Put plainly: MIC against Gram-negative bacteria: Klebsiella pneumonia. In outline: (§1)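 Bacteria grown in LB at 37° C to McFarland 0.5, resuspended and seeded at 5×10^5 CFU/mL in 96-well plates. Purified human EGF-domain proteins two-fold serially diluted, triplicate wells; cultured at 37° C, shaking 175 rpm. MIC = lowest protein concentration with no growth.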

For assay [2], the system named is Pseudomonas aeruginosa. Description: MIC against Gram-negative bacteria: Pseudomonas aeruginosa. The essentials:
as §1

In assay [3] the test system is E. coli BL21. Put plainly: MIC against Gram-negative bacteria: E. coli BL21. In outline:
as §1

Assay [4] deals with Proteus mirabilis. Put plainly: MIC against Gram-negative bacteria: Proteus mirabilis. The essentials:
as §1

Assay [5] deals with Citrobacter diversus. Description: MIC against Gram-negative bacteria: Citrobacter diversus. In outline: as §1
Assay [6] concerns Moraxella catarrhalis. Put plainly: MIC against Gram-negative bacteria: Moraxella catarrhalis. In outline:
as §1

Assay [7] has as its system Enterobacter cloacae. Put plainly: MIC against Gram-negative bacteria: Enterobacter cloacae. In outline: as §1
The test system of assay [8] is Proteus vulgaris. Put plainly: MIC against Gram-negative bacteria: Proteus vulgaris. The essentials: as §1
Assay [9] deals with Serratia marcescens. Description: MIC against Gram-negative bacteria: Serratia marcescens. The essentials:
as §1

Assay [10] relates to E. coli DH5α. Description: Antibacterial activity: MIC and growth curve against E. coli DH5α in 96-well plate. The conditions noted are these: minimal inhibitory concentration against E. coli DH5α; 96-well plate, 5×10^5 CFU/mL, 37° C., judged after 8 h. The essentials: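 Log-phase DH5α (OD600 about 0.5, 37° C, 185 rpm in LB) was pelleted, resuspended in fresh LB and seeded at 5×10^5 CFU/mL with recombinant protein at 50, 25 and 12.5 μg/mL (two-fold series), in triplicate. Plates were shaken at 175 rpm, 37° C, and OD600 was read every 30 min. MIC was the lowest concentration with no growth.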

In assay [11] the test system is Aeromonas hydrophila. Description: MIC against Gram-negative bacteria: Aeromonas hydrophila. The essentials: as §1
The mark [12] stands for this setting: 96-well plate, 5×10^5 CFU/mL, 37° C., 10 h.
Setting [13] is: 10 h cultivation at 37° C., 5×10^5 CFU/mL, two-fold serial dilution.

For “PRT1445 (PCLNDCGPYGQCLLLRRHSYLYASCSCKAGWRGWSCT; listed as Homo sapiens)”, in assay [1] (Klebsiella pneumonia, 5×10^5 CFU/mL, 10 h cultivation at 37° C.), the “MIC against K. pneumonia” value was 50 µg/mL. Further, the “MIC against P. aeruginosa” value in assay [2] (Pseudomonas aeruginosa, 5×10^5 CFU/mL, 10 h cultivation at 37° C.) was determined as 50 µg/mL. Further, the “MIC against E. coli BL21” value in [3] (E. coli BL21, 5×10^5 CFU/mL, 10 h cultivation at 37° C.) stood at 12.5 µg/mL. For the same substance, the “MIC against P. mirabilis” value in assay [4] (Proteus mirabilis, 5×10^5 CFU/mL, 10 h cultivation at 37° C.) amounted to 50 µg/mL. In assay [5] (Citrobacter diversus, 5×10^5 CFU/mL, 10 h cultivation at 37° C.), the “MIC against C. diversus” value was 25 µg/mL. The “MIC against M. catarrhalis” value in assay [6] (Moraxella catarrhalis, 5×10^5 CFU/mL, 10 h cultivation at 37° C.) worked out at 25 µg/mL. The “MIC against E. cloacae” value in assay [7] (Enterobacter cloacae, 5×10^5 CFU/mL, 10 h cultivation at 37° C.) amounted to 50 µg/mL. Also, the “MIC against P. vulgaris” value in [8] (Proteus vulgaris, 5×10^5 CFU/mL, 10 h cultivation at 37° C.) stood at 25 µg/mL. For the same substance, the “MIC against S. marcescens” value in assay [9] (Serratia marcescens, 5×10^5 CFU/mL, 10 h cultivation at 37° C.) was 50 µg/mL. The same substance yielded a minimum inhibitory concentration (MIC) in assay [10] of 50 µg/mL. The “MIC against A. hydrophila” value in [11] (Aeromonas hydrophila, 5×10^5 CFU/mL, 10 h cultivation at 37° C.) was found to be 50 µg/mL.
As to “PRT532 (CWCSALGSYQMPCSSVTGQCECRPGVTGQRCDRCLSGAYDFPHCQGSSSACDP; listed as Homo sapiens)”, the “MIC against K. pneumonia” value in [1] (setting [12]) stood at 12.5 µg/mL. The “MIC against P. aeruginosa” value in assay [2] (setting [12]) was found to be 12.5 µg/mL. The “MIC against E. coli BL21” value in [3] (setting [12]) amounted to 50 µg/mL. Also, in [4] (setting [12]), the “MIC against P. mirabilis” value was determined as 12.5 µg/mL. Also, the “MIC against C. diversus” value in assay [5] (setting [12]) was 12.5 µg/mL. The “MIC against M. catarrhalis” value in [6] (setting [12]) turned out to be 50 µg/mL. In addition, the “MIC against E. cloacae” value in assay [7] (setting [12]) is 12.5 µg/mL. In [8] (setting [12]), the “MIC against P. vulgaris” value was found to be 50 µg/mL. Also, the “MIC against S. marcescens” value in assay [9] (setting [12]) was 12.5 µg/mL. In assay [10], this substance yielded an MIC of 12.5 µg/mL. In addition, the “MIC against A. hydrophila” value in assay [11] (setting [12]) was determined as 12.5 µg/mL.
Turning to “PRT246 (DINECTMDSHTCSHHANCFNTQGSFKCKCKQGYKGNGLRCS; listed as Homo sapiens)”, the “MIC (μg/mL) K. pneumonia” value in [1] (K. pneumonia, 10 h cultivation at 37° C., 5×10^5 CFU/mL) was found to be 12.5 µg/mL. Besides, in assay [2] (P. aeruginosa, 10 h cultivation at 37° C., 5×10^5 CFU/mL), the “MIC (μg/mL) P. aeruginosa” value was determined as 12.5 µg/mL. Further, in assay [3] (E. coli BL21, 10 h cultivation at 37° C., 5×10^5 CFU/mL), the “MIC (μg/mL) E. coli BL21” value was determined as 12.5 µg/mL. Moreover, the “MIC (μg/mL) P. mirabilis” value in assay [4] (P. mirabilis, 10 h cultivation at 37° C., 5×10^5 CFU/mL) was 12.5 µg/mL. In addition, in assay [5] (C. diversus, 10 h cultivation at 37° C., 5×10^5 CFU/mL), the “MIC (μg/mL) C. diversus” value is 12.5 µg/mL. For the same substance, in assay [6] (M. catarrhalis, 10 h cultivation at 37° C., 5×10^5 CFU/mL), the “MIC (μg/mL) M. catarrhalis” value worked out at 25 µg/mL. Further, the “MIC (μg/mL) E. cloacae” value in assay [7] (E. cloacae, 10 h cultivation at 37° C., 5×10^5 CFU/mL) worked out at 12.5 µg/mL. Also, in [8] (P. vulgaris, 10 h cultivation at 37° C., 5×10^5 CFU/mL), the “MIC (μg/mL) P. vulgaris” value was found to be 25 µg/mL. The “MIC (μg/mL) S. marcescens” value in assay [9] (S. marcescens, 10 h cultivation at 37° C., 5×10^5 CFU/mL) came out at 12.5 µg/mL. Also, in [10], the MIC turned out to be 12.5 µg/mL. For the same substance, the “MIC (μg/mL) A. hydrophila” value in assay [11] (A. hydrophila, 10 h cultivation at 37° C., 5×10^5 CFU/mL) came to 12.5 µg/mL.
As to “PRT963 (QVDECRSQPCRHGGKCLDLVDKYLCRCPSGTTGVNCE; listed as Homo sapiens)”, the MIC came out at 12.5 µg/mL in assay [1] (K. pneumonia, 10 h cultivation at 37° C.); 25 µg/mL in assay [2] (P. aeruginosa, 10 h cultivation at 37° C.); 50 µg/mL in assay [3] (E. coli BL21, 10 h cultivation at 37° C.); 50 µg/mL in [4] (P. mirabilis, 10 h cultivation at 37° C.); 25 µg/mL in assay [5] (C. diversus, 10 h cultivation at 37° C.); 12.5 µg/mL in assay [6] (M. catarrhalis, 10 h cultivation at 37° C.). Moreover, the minimum inhibitory concentration (MIC) is 25 µg/mL in assay [7] (E. cloacae, 10 h cultivation at 37° C.); 25 µg/mL in [8] (P. vulgaris, 10 h cultivation at 37° C.); 25 µg/mL in [9] (S. marcescens, 10 h cultivation at 37° C.); 25 µg/mL in assay [10]; 50 µg/mL in [11] (A. hydrophila, 10 h cultivation at 37° C.).
With “PRT599 (CECDPDGTISGGICVSHSDPALGSVAGQCLCKENVEGAKCDQCKPNHYGLSATDPLGCQP; listed as Homo sapiens)”, in [1] (setting [12]), the “MIC K. pneumonia” value came to 12.5 µg/mL. Besides, the “MIC P. aeruginosa” value in assay [2] (setting [12]) turned out to be 50 µg/mL. Further, in [3] (setting [12]), the “MIC E. coli BL21” value was found to be 25 µg/mL. The “MIC P. mirabilis” value in assay [4] (setting [12]) came to 50 µg/mL. The “MIC C. diversus” value in assay [5] (setting [12]) was 50 µg/mL. In [6] (setting [12]), the “MIC M. catarrhalis” value turned out to be 12.5 µg/mL. Further, the “MIC E. cloacae” value in assay [7] (setting [12]) was 50 µg/mL. In assay [8] (setting [12]), the “MIC P. vulgaris” value was found to be 12.5 µg/mL. Also, the “MIC S. marcescens” value in assay [9] (setting [12]) is 50 µg/mL. For the same substance, the MIC in assay [10] was determined as 12.5 µg/mL. In addition, the “MIC A. hydrophila” value in assay [11] (setting [12]) amounted to 12.5 µg/mL.
Take “PRT1125 (LCDQCVTSPGCLHGLCGEPGQCICTDGWDGELCD; listed as Homo sapiens)”: in assay [1] (setting [13]), the “MIC K. pneumonia” value was 12.5 µg/mL. Besides, the “MIC P. aeruginosa” value in [2] (setting [13]) stood at 12.5 µg/mL. Also, in assay [3] (setting [13]), the “MIC E. coli BL21” value worked out at 12.5 µg/mL. In addition, the “MIC P. mirabilis” value in [4] (setting [13]) came to 12.5 µg/mL. Further, the “MIC C. diversus” value in assay [5] (setting [13]) was 12.5 µg/mL. In addition, the “MIC M. catarrhalis” value in assay [6] (setting [13]) came to 12.5 µg/mL. Also, the “MIC E. cloacae” value in assay [7] (setting [13]) was 12.5 µg/mL. Further, in assay [8] (setting [13]), the “MIC P. vulgaris” value amounted to 12.5 µg/mL. In addition, in assay [9] (setting [13]), the “MIC S. marcescens” value was 25 µg/mL. In [10], this substance gave an MIC of 25 µg/mL. Further, the “MIC A. hydrophila” value in assay [11] (setting [13]) amounted to 12.5 µg/mL.

For orientation: MIC means the lowest concentration that inhibits growth of the organism. Read a low MIC as a more susceptible organism.
